Data reported in PubChem BioAssay AID330 (DTP/NCI, 2004).
Values joined by “and” are separate entries in the source; they are usually repeats but may differ in a detail not shown here. Equal entries are not always repeated. Toxic doses and inconclusive results are not listed.

Test system: P388 leukemia ip, CD2F1 mice, survival T/C
Assay: NCI In Vivo Anticancer Drug Screen. Data for tumor model P388 Leukemia (intraperitoneal) in CD2F1 (CDF1) mice
Conditions: endpoint: median survival time, higher = longer survival
Summary of the method: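 Mice carrying the transplanted tumor received test compound or vehicle. Survival was recorded in each group, and the value is the treated-group measurement divided by that of the vehicle-treated control group.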

[1] = dose: 50.0 mg/kg/injection, schedule: Q04DX003 (ip), vehicle: saline
[2] = dose: 100.0 mg/kg/injection, schedule: Q04DX003 (ip), vehicle: saline
[3] = dose: 50.0 mg/kg/injection, schedule: Q01DX009 (ip), vehicle: saline with Tween-80

COc1ccc(/C=N/Nc2nnc3c4ccccc4c4ccccc4c3n2)cc1 was tested, and the T/C [1] was 89 % of control, the T/C [2] was 93 % of control and the T/C (dose: 200.0 mg/kg/injection, schedule: Q04DX003 (ip), vehicle: saline) was 92 % of control.

In the case of CCNC1(N(C)C)N=C(N(C)C)N=C(N(C)C)O1 (stereo not given), the T/C (dose: 50.0 mg/kg/injection, schedule: Q01DX005 (ip), vehicle: saline) is reported as 96 % of control and the T/C (dose: 100.0 mg/kg/injection, schedule: Q01DX005 (ip), vehicle: saline) is reported as 96 % of control.

In the case of CN(C=O)c1cc2c3c(c1)CCCN3CCC2, the T/C (dose: 12.5 mg/kg/injection, schedule: Q01DX009 (ip), vehicle: saline with Tween-80) is reported as 109 % of control, the T/C (dose: 12.5 mg/kg/injection, schedule: Q04DX003 (ip), vehicle: saline with Tween-80) is reported as 100 % of control and the T/C (dose: 25.0 mg/kg/injection, schedule: Q01DX009 (ip), vehicle: saline with Tween-80) is reported as 104 % of control. For the same molecule, the T/C (dose: 25.0 mg/kg/injection, schedule: Q04DX003 (ip), vehicle: saline with Tween-80) was 90 % of control, the T/C [3] was 109 % of control and the T/C (dose: 50.0 mg/kg/injection, schedule: Q04DX003 (ip), vehicle: saline with Tween-80) was 95 % of control.

N#CC(c1cc2c(cc1Br)OCO2)N1CCCC1 (stereo not given) was tested, and the T/C (dose: 100.0 mg/kg/injection, schedule: Q01DX001 (ip), vehicle: Klucel (hydroxypropylcellulose) (HPC)) was 100 % of control, the T/C (dose: 200.0 mg/kg/injection, schedule: Q01DX001 (ip), vehicle: Klucel (hydroxypropylcellulose) (HPC)) was 101 % of control and the T/C (dose: 400.0 mg/kg/injection, schedule: Q01DX001 (ip), vehicle: Klucel (hydroxypropylcellulose) (HPC)) was 99 % of control.

O=C(O)C1CCC[N-]1.[Cl][Pd][Cl] (stereo not given) was tested, and the T/C (dose: 6.25 mg/kg/injection, schedule: Q01DX009 (ip), vehicle: water) was 105 % of control, the T/C (dose: 12.5 mg/kg/injection, schedule: Q01DX009 (ip), vehicle: water) was 96 % of control and the T/C (dose: 25.0 mg/kg/injection, schedule: Q01DX009 (ip), vehicle: water) was 100 % of control. The T/C (dose: 50.0 mg/kg/injection, schedule: Q01DX009 (ip), vehicle: water) was 114 % of control and the T/C (dose: 100.0 mg/kg/injection, schedule: Q01DX009 (ip), vehicle: water) was 93 % of control.

For CCCCC(CC)COP(=O)(CC(CC)CCCC)OCC(CC)CCCC (stereo not given), the T/C (dose: 6.25 mg/kg/injection, schedule: Q01DX009 (ip), vehicle: saline) was 109 % of control, the T/C (dose: 12.5 mg/kg/injection, schedule: Q01DX009 (ip), vehicle: saline) was 109 % of control and the T/C (dose: 25.0 mg/kg/injection, schedule: Q01DX009 (ip), vehicle: saline) was 109 % of control. For the same molecule, the T/C (dose: 25.0 mg/kg/injection, schedule: Q04DX003 (ip), vehicle: saline) was 100 % of control, the T/C [1] was 100 % of control and the T/C [2] was 113 % of control.

COCc1ccc2c(c1)C(O)NC(=O)O2 (stereo not given) was tested, and the T/C (dose: 50.0 mg/kg/injection, schedule: Q01DX005 (ip), vehicle: saline with Tween-80) was 102 % of control, the T/C (dose: 100.0 mg/kg/injection, schedule: Q01DX005 (ip), vehicle: saline with Tween-80) was 107 % of control and the T/C (dose: 200.0 mg/kg/injection, schedule: Q01DX005 (ip), vehicle: saline with Tween-80) was 109 % of control. For the same molecule, the T/C (dose: 400.0 mg/kg/injection, schedule: Q01DX005 (ip), vehicle: saline with Tween-80) was 117 % of control.

F[B-](F)(F)F was tested, and the T/C (dose: 12.5 mg/kg/injection, schedule: Q01DX009 (ip), vehicle: gum acacia) was 111 % of control, the T/C (dose: 25.0 mg/kg/injection, schedule: Q01DX009 (ip), vehicle: gum acacia) was 118 % of control and the T/C (dose: 50.0 mg/kg/injection, schedule: Q01DX009 (ip), vehicle: gum acacia) was 109 % of control and 114 % of control. The T/C (dose: 100.0 mg/kg/injection, schedule: Q01DX009 (ip), vehicle: gum acacia) was 123 % of control.

With COC1/C=C\CC2=CCCC=C2CC1 (stereo not given) the T/C (dose: 25.0 mg/kg/injection, schedule: Q01DX009 (sc), vehicle: olive oil, sesame oil, peanut oil) was 100 % of control, the T/C (dose: 50.0 mg/kg/injection, schedule: Q01DX009 (sc), vehicle: olive oil, sesame oil, peanut oil) was 97 % of control and the T/C (dose: 100.0 mg/kg/injection, schedule: Q01DX009 (sc), vehicle: olive oil, sesame oil, peanut oil) was 97 % of control. For the same molecule, the T/C (dose: 200.0 mg/kg/injection, schedule: Q01DX009 (sc), vehicle: olive oil, sesame oil, peanut oil) was 95 % of control.

For CCCCCCC(=O)CC(SCC)c1ccc(Cl)c(Cl)c1 (stereo not given), the T/C [3] was 100 % of control, the T/C (dose: 100.0 mg/kg/injection, schedule: Q01DX009 (ip), vehicle: saline with Tween-80) was 97 % of control and the T/C (dose: 200.0 mg/kg/injection, schedule: Q01DX009 (ip), vehicle: saline with Tween-80) was 106 % of control.

In the case of CCN(CC)C1CC(O[C@H]2C[C@](O)(C(=O)CO)Cc3c(O)c4c(c(O)c32)C(=O)c2c(OC)cccc2C4=O)OC(C)C1O (stereo not given in full), the T/C (dose: 1.56 mg/kg/injection, schedule: Q01DX009 (ip), vehicle: water) is reported as 153 % of control and the T/C (dose: 3.13 mg/kg/injection, schedule: Q01DX009 (ip), vehicle: water) is reported as 165 % of control and 178 % of control.

For C=COCC(C)C (tested in a mixture with another compound), the T/C (dose: 1.56 mg/kg/injection, schedule: Q01DX009 (ip), vehicle: saline with Tween-80) was 108 % of control, the T/C (dose: 3.12 mg/kg/injection, schedule: Q01DX009 (ip), vehicle: saline with Tween-80) was 101 % of control and the T/C (dose: 6.25 mg/kg/injection, schedule: Q01DX009 (ip), vehicle: saline with Tween-80) was 96 % of control.
